Patent publication US7524849B2, “5-arylpyrimidines as anticancer agents” (Wyeth Holdings Corporation, priority 2003, dated 2009)

Tests used:
KB-V1 cells = assay: MTS cytotoxicity test with KB-V1 cells (very high P-glycoprotein); format: cell-based, human; details: for IC50: KB VI cells, mean of 2 experiments
Text: (§1) Human cancer cell lines, unless otherwise noted, are obtained from the American Type Culture Collection (Rockville, Md.). The following drug-sensitive parental cell lines, and their derived drug-resistant counterparts, are obtained from the originators as listed: (a) S1 (parental line from a subclone of human colon carcinoma line LS174T) and derived S1-M1-3.2 (herein called S1-M1) which expresses the MXR drug transporter protein, are provided by Dr. L. Greenberger, Wyeth Research (Rabindran, S. K., He, H., Singh, M., Brown, E., Collins, K. I., Annable, T., and Greenberger, L. M. Reversal of a novel multidrug resistance mechanism in human colon carcinoma cells by fumitremorgin C. Cancer Res., 58: 5850-5858, 1998); (b) parental HL-60 human promyelocytic leukemia line and derived HL-60/ADR, which expresses the MRP1 drug transporter protein, are provided by Dr. M. Center, University of Kansas (McGrath, T., and Center, M. S. Adriamycin resistance in HL60 cells in the absence of detectable P-glycoprotein. Biochem. Biophys. […] J. Biol. Chem., 261: 7762-7770, 1986) via Dr. L. Greenberger, Wyeth Research.
(§2) The assay, which is sold in kit form by Promega (Madison, Wis.; CellTiter 96 AQueous Non-Radioactive Cell Proliferation Assay), is based on the conversion by viable cells, but not by dead cells, of the tetrazolium salt, MTS (3-(4,5-dimethylthiazol-2-yl)-5-(3-carboxymethoxyphenyl)-2-(4-sulphophenyl)-2H-tetrazolium, inner salt), into a water-soluble colored formazan which is detected by spectrophotometry. Compounds are tested at nine concentrations, in order to determine IC50 values. For the test procedure, cells are harvested by trypsinization, washed, counted and distributed to wells of 96-well flat-bottom microtiter plates at 1000 cells per well in 200 μL of medium. In addition, one row of wells on a separate plate receives cells as above (“time 0” plate). All plates are incubated at 37° in humidified 5% CO2 in air for about 24 hr.
(§3) On day 2, compounds for test are diluted and added to wells. Compounds are dissolved in DMSO at 10 mg/mL. For each compound, nine serial 2-fold dilutions are prepared in DMSO. Ten μL of each dilution in DMSO are transferred to 100 μL of medium, mixed well, and then 5 μL of this dilution are transferred in quadruplicate to wells containing cells. […] Plates are returned to the incubator for three days. At the time of drug addition to the experimental plates, the MTS assay is run on the “time 0” plate. This produces the “time 0 MTS value” which is related to the number of viable cells per well at the time of drug addition.
(§4) After three days of culture with test compounds (day 5 overall), the MTS assay is done on all wells of the experimental plates. The absorbance values of the quadruplicate sample wells are averaged and divided by the average of the “time 0” values. […] The nine values for each compound are plotted against concentration, and the concentration that produces a relative color yield half way between the maximum and minimum is taken as the IC50 value.

[1] = test system: highly purified tubulin (tubulin heterodimer); assay: Competitive binding test, [3H]colchicine; set-up: species or system bovine; details: competitor 100 μM, [3H]colchicine 50 nM, percent of binding to control without competitor
Procedure: (§5) Medium is RPMI-1640 with L-glutamine, supplemented with 10% heat-inactivated fetal calf serum, 100 units/mL penicillin, and 100 μg/mL streptomycin (Gibco, Grand Island, N.Y.). Microtubule-associated protein (MAP)-rich tubulin, containing about 70% tubulin and 30% MAPs (#ML113), and highly purified tubulin (>99% pure, #TL238), both from bovine brain, are obtained from Cytoskeleton, Inc., Denver, Colo. PEM buffer (80 mM piperazine-N,N′-bis[2-ethanesulfonic acid], pH 6.9, 1 mM ethylene glycol-bis(β-aminoethyl ether)-N,N,N′,N′-tetraacetic acid, 1 mM magnesium chloride) and guanosine 5′-triphosphate (GTP) are also obtained from Cytoskeleton. […] [^3H]vinblastine, specific activity 9.60 Ci/mmol and MicroSpin G-50 columns are obtained from Amersham Biosciences (Piscataway, N.J.). […] Other reagents are obtained from Sigma (St. Louis, Mo.).
(§6) The binding of examples of this invention to highly purified tubulin is studied by competitive inhibition methods.
(§7) These solutions are incubated at 24° for 1 hr and then applied to MicroSpin G-50 columns which are centrifuged for 2 min at 3000 rpm in an Eppendorf 5415C microfuge. An aliquot of each column effluent (containing tubulin and bound radioligand) is mixed with scintillation fluid and counted in a liquid scintillation spectrometer. […] Quadruplicates are averaged, and the ability of the competitor to inhibit the binding of the radioligand is expressed as a percentage of control binding in the absence of any competitor.

KB cells = assay: MTS cytotoxicity test with KB cells; format: cell-based, human; details: mean of 2 experiments
Text: as §1, §2, §3, §4

COLO 205 cells = assay: MTS cytotoxicity test with COLO 205 cells; format: cell-based, human; details: three days with compound
Procedure: as §2
On day 2, compounds for test are diluted and added to wells. Compounds are dissolved in DMSO at 10 mg/mL. For each compound, nine serial 2-fold dilutions are prepared in DMSO. Ten μL of each dilution in DMSO are transferred to 100 μL of medium, mixed well, and then 5 μL of this dilution are transferred in quadruplicate to wells containing cells. The final high concentration of each compound is typically 5 μM. Plates are returned to the incubator for three days. At the time of drug addition to the experimental plates, the MTS assay is run on the “time 0” plate. This produces the “time 0 MTS value” which is related to the number of viable cells per well at the time of drug addition.
After three days of culture with test compounds (day 5 overall), the MTS assay is done on all wells of the experimental plates. The absorbance values of the quadruplicate sample wells are averaged and divided by the average of the “time 0” values. The average of control wells without drug, divided by the average “time 0” value, gives the maximal relative increase in MTS color yield due to cell growth during the final three days of culture. The average of control wells with high drug concentration, divided by the “time 0” value, gives the minimal relative color yield for cells that were completely killed. The nine values for each compound are plotted against concentration, and the concentration that produces a relative color yield half way between the maximum and minimum is taken as the IC50 value.
COLO 205 is a human colon carcinoma cell line that is used for comparative testing of the examples of this invention and several reference compounds. This line is sensitive to paclitaxel and vincristine.

S1-M1 cells = assay: MTS cytotoxicity test with S1-M1 cells (MXR); format: cell-based, human; details: for IC50: S1-M1 cells, mean of 2 experiments; for Ratio: IC50 on S1-M1 cells/IC50 on S1 cells
Text: as §1, §2, §3, §4
(§8) S1-M1 cells overexpress the MXR transporter which mediates resistance to some chemotherapeutics (Gottesman, M. M., Fojo, T., and Bates, S. E. Miltidrug resistance in cancer: role of ATP-dependent transporters. Nature Rev. Cancer, 2: 48-58, 2002). The IC50 values of representative examples of this invention, as well as reference compounds, on S1-M1 are compared to values on the sensitive parental S1 line.

HL-60/ADR cells = assay: MTS cytotoxicity test with HL-60/ADR cells (MRP1); format: cell-based, human; details: for IC50: HL-60/ADR cells, mean of 2 experiments; for Ratio: IC50 on HL-60/ADR cells/IC50 on HL-60 cells
Text: as §1, §2, §3, §4
as §8, with “HL-60/ADR” for “S1-M1”, “multidrug resistance protein MRP1” for “MXR transporter”, “Multidrug” for “Miltidrug”, “HL-60” for “S1”

KB-8-5 cells = assay: MTS cytotoxicity test with KB-8-5 cells (moderate P-glycoprotein); format: cell-based, human; details: KB 8.5 cells, mean of 2 experiments
Text: as §1, §2, §3, §4

HL-60 cells = assay: MTS cytotoxicity test with HL-60 cells; format: cell-based, human; details: mean of 2 experiments
Text: as §1, §2, §3, §4
as §8, with “HL-60/ADR” for “S1-M1”, “multidrug resistance protein MRP1” for “MXR transporter”, “Multidrug” for “Miltidrug”, “HL-60” for “S1”

S1 cells = assay: MTS cytotoxicity test with S1 cells; format: cell-based, human; details: mean of 2 experiments
Text: as §1, §2, §3, §4, §8

[2] = test system: highly purified tubulin (tubulin heterodimer); assay: Competitive binding test, [3H]vinblastine; set-up: species or system bovine; details: competitor 100 μM, [3H]vinblastine 100 nM, percent of binding to control without competitor
Procedure: as §5, §6, §7

MAP-rich tubulin = assay: Tubulin polymerization test with MAP-rich tubulin; format: biochemical, bovine; details: 0.3 μM compound, mean A340 at 20 min, fold enhancement over control
Procedure: as §5
MAP-rich tubulin is dissolved in ice-cold PEM buffer containing 1 mM GTP (GPEM buffer) at a concentration of 1.3 mg/mL. The solution is centrifuged at top speed in an Eppendorf model 5415C microcentrifuge (Brinkmann Instruments, Westbury, N.Y.) for 10 min at 4° immediately before use. The tubulin solution is added to wells of a ½-area 96-well plate (Costar No. 3696, Corning, Inc., Corning, N.Y.) already containing the compounds of interest. Each compound is tested in duplicate at a final concentration of 0.3 μM in a volume of 110 μL per well. The final DMSO concentration in all wells is 0.3%. Control reactions, which receive compound solvent only, are done in quadruplicate. The plate is put in a SpectraMax Plus plate reader (Molecular Devices Corp. Sunnyvale, Calif.) thermostated at 24° and the absorbance of each well at 340 nm, a measure of the appearance of turbidity due to tubulin polymer formation, is determined every minute for 60 minutes. The absorbance at time 0 for each well is subtracted from each of the subsequent absorbance readings for that well, and then the duplicates are averaged.

CN(C)CCCOc1cc(F)c(-c2c(Cl)nc(N(C)C#N)nc2NCC(F)(F)F)c(F)c1 [Example 19, 4-Chloro-5-{4-[3-(dimethylamino)propoxy]-2,6-difluorophenyl}-6-[(2,2,2-trifluoroethyl)amino]pyrimidin-2-yl(methyl)cyanamide]
IC50 (KB-V1 cells; Homo sapiens, KB-V1): 176 nM | [3H]Colchicine binding, Mean [1]: 116 % of control | IC50 (KB cells; Homo sapiens): 63 nM | IC50 (COLO 205 cells; Homo sapiens, 72 h): 52 nM | IC50 (S1-M1 cells; Homo sapiens): 88 nM | Ratio (S1-M1 cells): 1.0 | IC50 (HL-60/ADR cells; Homo sapiens, HL60/ADR): 60 nM | Ratio (HL-60/ADR cells): 0.9 | IC50 (KB-8-5 cells; Homo sapiens): 69 nM | IC50 (HL-60 cells; Homo sapiens): 66 nM | IC50 (S1 cells; Homo sapiens): 88 nM | [3H]Vinblastine binding, Mean [2]: 22 % of control

CN(C#N)c1nc(Cl)c(-c2c(F)cc(F)cc2F)c(NCC(F)(F)F)n1 [Example 1, 4-Chloro-6-[(2,2,2-trifluoroethyl)amino]-5-(2,4,6-trifluorophenyl)pyrimidin-2-yl(methyl)cyanamide]
[3H]Colchicine binding, Mean [1]: 47 % of control | IC50 (COLO 205 cells; Homo sapiens, 72 h): 214 nM | [3H]Vinblastine binding, Mean [2]: 30 % of control

CN(C)CCCOc1cc(F)c(-c2c(Cl)nc(-n3ccnc3)nc2NCC(F)(F)F)c(F)c1 [Example 31, 6-Chloro-5-{4-[3-(dimethylamino)propoxy]-2,6-difluorophenyl}-2-(1H-imidazol-1-yl)-N-(2,2,2-trifluoroethyl)pyrimidin-4-amine]
IC50 (COLO 205 cells; Homo sapiens, 72 h): 682 nM | melting point: 47 to 49 °C

Fc1cc(F)c(-c2c(Cl)nc(-n3ccnc3)nc2NCC(F)(F)F)c(F)c1 [Example 15, 6-Chloro-2-(1H-imidazol-1-yl)-N-(2,2,2-trifluoroethyl)-5-(2,4,6-trifluorophenyl)pyrimidin-4-amine]
IC50 (COLO 205 cells; Homo sapiens, 72 h): 3030 nM | melting point: 168 to 170 °C

CNCCCOc1cc(F)c(-c2c(Cl)nc(-c3cnccn3)nc2C2CCCCCC2)c(F)c1.O=C(O)C(F)(F)F [Example 33a, N-{3-[4-(4-Chloro-6-cycloheptyl-2-pyrazin-2-ylpyrimidin-5-yl)-3,5-difluorophenoxy]propyl}-N-methylamine trifluoroacetic acide salt]
Ratio VI/KB (KB-V1 cells; IC50 on KB VI cells/IC50 on KB cells): 13 | IC50 (KB-V1 cells): 91 nM | recognition by P-glycoprotein (KB-V1 cells; inferred from change in IC50 KB-V1 vs KB): show recognition by P-glycoprotein, but much less than that shown by paclitaxel and vincristine | IC50 (KB cells): 6.8 nM | IC50 (COLO 205 cells): 8.2 nM | Ratio (S1-M1 cells): 1.4 | IC50 (S1-M1 cells): 12 nM | IC50 (HL-60/ADR cells): 6.1 nM | Ratio (HL-60/ADR cells): 0.9 | IC50 (KB-8-5 cells): 7.5 nM | A340 Compound / A340 Control (MAP-rich tubulin): 0.5 | IC50 (HL-60 cells): 6.9 nM | IC50 (S1 cells): 8.5 nM
